# From patent US20230117034A1, “PYRAZOLOTRIAZINES” (Bayer Aktiengesellschaft, priority 2019, published 2023)
# How the values were obtained:
# [1] = molecular target: T1, CDK2/CycE (Homo sapiens, UniProt P24941); assay: CDK2/CycE kinase assay (TR-FRET, 2 mM ATP); assay type: biochemical; conditions: 2 mM ATP (high ATP); median; read-out: CDK2/CyclinE, 2 mM ATP (high ATP), IC50 (median)
# T1 construct: purchased ProQinase GmbH (Freiburg, Germany); host or cells: insect cells (Sf9)
# How it was run: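 Biotin-peptide phosphorylation (0.75 µM substrate, 2 mM ATP final, 25 min, 22 °C) by Sf9-expressed GST-CDK2/GST-CycE, after a 15-min compound pre-binding step. Inhibition scaled between enzyme-free (100%) and uninhibited (0%) wells.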
# [2] = test system: CAL-120, human breast adenocarcinoma cells; assay: Proliferation assay CAL-120 (crystal violet, 4 days); assay type: cell-based; conditions: Homo sapiens, CAL-120, 96 h, CAL-120 cells, median, read-out: Prolif-CAL-120, IC50-[mol/l] (median)
# How it was run: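 IC50 from a 4-parameter fit of crystal violet absorbance (595 nm), scaled between a day-0 plate (0%) and untreated wells (100%). Cells grown in 10% FCS medium were exposed to test substances at 0.01-10 µmol/L for 4 days, 0.1% DMSO final.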
# [3] = molecular target: T2, CDK12 (nuclear staining in CAL-120 cells) (Homo sapiens, UniProt Q9NYV4); assay: CDK12 nuclear protein level: immunofluorescence/high content analysis (CAL-120); assay type: cell-based; conditions: for DC50: CAL-120 cells, 24 h, immunofluorescence, 50% reduction of nuclear CDK12 staining intensity, median, read-out: CDK12 degradation IF, DC50- [mol/l] (median); for (IC50 CDK12 high ATP) to (Degradation DC50 CDK12) ratio: ratio of IC50 CDK12 high ATP kinase assay to DC50 CDK12 degradation (IF, CAL-120)
# T2 construct: endogenous in cells; host or cells: CAL-120 human breast cancer cells (DSMZ ACC 459)
# T2 sequence (Q9NYV4 whole entry): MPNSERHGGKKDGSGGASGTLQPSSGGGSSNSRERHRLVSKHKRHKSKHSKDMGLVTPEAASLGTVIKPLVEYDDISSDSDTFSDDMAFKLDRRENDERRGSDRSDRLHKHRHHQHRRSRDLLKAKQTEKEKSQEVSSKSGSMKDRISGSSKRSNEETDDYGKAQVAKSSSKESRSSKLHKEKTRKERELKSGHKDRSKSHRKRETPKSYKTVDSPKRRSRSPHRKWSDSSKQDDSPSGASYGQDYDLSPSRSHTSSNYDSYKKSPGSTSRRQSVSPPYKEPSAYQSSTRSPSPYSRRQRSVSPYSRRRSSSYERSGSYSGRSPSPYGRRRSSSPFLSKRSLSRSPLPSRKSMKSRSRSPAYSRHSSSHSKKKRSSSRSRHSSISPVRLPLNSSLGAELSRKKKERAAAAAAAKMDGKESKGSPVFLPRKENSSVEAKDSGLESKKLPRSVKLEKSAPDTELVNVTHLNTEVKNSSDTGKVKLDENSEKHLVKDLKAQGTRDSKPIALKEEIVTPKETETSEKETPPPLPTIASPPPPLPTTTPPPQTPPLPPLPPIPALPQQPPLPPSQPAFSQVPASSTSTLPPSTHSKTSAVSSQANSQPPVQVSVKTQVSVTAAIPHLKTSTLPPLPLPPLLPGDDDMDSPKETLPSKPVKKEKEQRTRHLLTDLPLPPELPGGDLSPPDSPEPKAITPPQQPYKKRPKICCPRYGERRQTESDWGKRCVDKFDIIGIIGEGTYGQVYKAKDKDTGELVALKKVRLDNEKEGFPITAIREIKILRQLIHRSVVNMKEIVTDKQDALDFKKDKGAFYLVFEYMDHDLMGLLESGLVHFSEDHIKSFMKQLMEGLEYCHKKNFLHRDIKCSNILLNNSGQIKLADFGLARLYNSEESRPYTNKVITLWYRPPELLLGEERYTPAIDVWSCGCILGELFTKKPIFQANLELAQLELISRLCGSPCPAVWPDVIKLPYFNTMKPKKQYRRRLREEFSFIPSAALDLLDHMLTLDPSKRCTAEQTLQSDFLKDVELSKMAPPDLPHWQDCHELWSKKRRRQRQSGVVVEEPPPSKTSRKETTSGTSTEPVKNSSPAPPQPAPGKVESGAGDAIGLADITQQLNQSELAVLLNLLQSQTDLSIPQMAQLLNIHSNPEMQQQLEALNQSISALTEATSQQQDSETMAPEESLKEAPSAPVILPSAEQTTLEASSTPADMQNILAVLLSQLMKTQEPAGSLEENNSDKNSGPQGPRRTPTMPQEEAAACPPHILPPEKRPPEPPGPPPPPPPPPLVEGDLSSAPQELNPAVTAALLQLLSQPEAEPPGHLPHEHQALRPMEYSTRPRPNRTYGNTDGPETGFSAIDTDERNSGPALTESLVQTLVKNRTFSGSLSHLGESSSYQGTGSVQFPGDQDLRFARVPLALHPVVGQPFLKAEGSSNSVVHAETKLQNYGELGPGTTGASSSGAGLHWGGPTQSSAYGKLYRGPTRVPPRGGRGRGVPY
# T2 sequence (O75909 whole entry partner): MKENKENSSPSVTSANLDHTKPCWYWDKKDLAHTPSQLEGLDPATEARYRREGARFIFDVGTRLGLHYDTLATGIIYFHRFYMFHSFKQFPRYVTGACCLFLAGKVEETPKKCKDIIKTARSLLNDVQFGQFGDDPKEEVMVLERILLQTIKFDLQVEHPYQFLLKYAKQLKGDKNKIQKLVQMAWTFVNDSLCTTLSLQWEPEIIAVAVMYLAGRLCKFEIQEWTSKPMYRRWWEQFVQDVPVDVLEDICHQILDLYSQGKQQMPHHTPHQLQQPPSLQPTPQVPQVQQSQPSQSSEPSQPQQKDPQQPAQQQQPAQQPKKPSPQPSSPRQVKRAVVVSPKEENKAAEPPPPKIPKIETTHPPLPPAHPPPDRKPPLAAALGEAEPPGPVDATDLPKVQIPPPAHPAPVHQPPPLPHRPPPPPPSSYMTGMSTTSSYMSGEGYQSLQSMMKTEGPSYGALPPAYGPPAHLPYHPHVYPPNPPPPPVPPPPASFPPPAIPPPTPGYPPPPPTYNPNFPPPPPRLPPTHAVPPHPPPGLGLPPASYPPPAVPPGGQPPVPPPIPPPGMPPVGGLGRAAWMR
# How it was run: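 DC50 is the degrader concentration that halves nuclear CDK12 immunofluorescence relative to controls, measured by high-content imaging. CAL-120 cells were exposed to compound for 24 h at 37 °C before PFA fixation, and signal was normalized to DMSO and control wells.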
SMILES,IC50 [1],IC50 [2],DC50 [3],(IC50 CDK12 high ATP) to (Degradation DC50 CDK12) ratio [3]
"CN(CC(C)(C)O)c1nc(NCc2nc3ccccc3[nH]2)n2ncc(Br)c2n1 [Example 238, 1-[(4-{[(1H-benzimidazol-2-yl)methyl]amino}-8-bromopyrazolo[1,5-a][1,3,5]triazin-2-yl)(methyl)amino]-2-methylpropan-2-ol]",1860 nM,36.3 nM,6.49 nM,276
"COC(C)(C)CNc1nc(NCc2nc3ccccc3[nH]2)n2ncc(Br)c2n1 [Example 236, N4-(1H-benzimidazol-2-ylmethyl)-8-bromo-N2-(2-methoxy-2-methyl-propyl)pyrazolo[1,5-a][1,3,5]triazine-2,4-diamine]",12800 nM,97.4 nM,7.18 nM,–
"C[C@@H]1CN(c2nc(NCc3nc4c(F)cccc4[nH]3)n3ncc(C4CC4)c3n2)C[C@H](C)N1 [Example 186, 8-cyclopropyl-2-[(3R,5S)-3,5-dimethylpiperazin-1-yl]-N-[(4-fluoro-1H-benzimidazol-2-yl)methyl]pyrazolo[1,5-a][1,3,5]triazin-4-amine]",> 20000 nM,4.2 nM,0.226 nM,12018
"CN1CC2CCC1CN2c1nc(NCc2nc3ccccc3[nH]2)n2ncc(Br)c2n1 (stereo not shown) [Example 221, N-(1H-benzimidazol-2-ylmethyl)-8-bromo-2-(5-methyl-2,5-diazabicyclo[2.2.2]octan-2-yl)pyrazolo[1,5-a][1,3,5]triazin-4-amine]",5010 nM,13 nM,4.68 nM,1704
"FC(F)(F)c1cnn2c(NCc3nc4ccccc4[nH]3)nc(N3CCOCC3)nc12 [Example 241, N-[(1H-benzimidazol-2-yl)methyl]-2-(morpholin-4-yl)-8-(trifluoromethyl) pyrazolo[1,5-a][1,3,5]triazin-4-amine]",12000 nM,29.6 nM,4.34 nM,186
"CN1CCCC2CN(c3nc(NCc4nc5ccccc5[nH]4)n4ncc(Br)c4n3)CC21 (stereo not shown) [Example 231, N-[(1H-benzimidazol-2-yl)methyl]-8-bromo-2-(1-methyloctahydro-6H-pyrrolo[3,4-b]pyridin-6-yl)pyrazolo[1,5-a][1,3,5]triazin-4-amine]",12400 nM,135 nM,33.9 nM,>590
"Brc1cnn2c(NCc3nc4ccccc4[nH]3)nc(N3CC4CCC3CN4)nc12 (stereo not shown) [Example 220, N-(1H-benzimidazol-2-ylmethyl)-8-bromo-2-(2,5-diazabicyclo[2.2.2]octan-2-yl)pyrazolo[1,5-a][1,3,5]triazin-4-amine]",908 nM,7.04 nM,4.21 nM,1318
"CN1CC[C@@H]2CN(c3nc(NCc4nc5ccccc5[nH]4)n4ncc(Br)c4n3)C[C@@H]21 [Example 217, N-[(1H-benzimidazol-2-yl)methyl]-8-bromo-2-[(3aR,6aR)-1-methylhexahydropyrrolo[3,4-b]pyrrol-5 (1H)-yl]pyrazolo[1,5-a][1,3,5]triazin-4-amine]",> 20000 nM,44.9 nM,8.64 nM,>2315
"Fc1ccc2[nH]c(CNc3nc(N4C[C@@H]5CCCN[C@@H]5C4)nc4c(C5CC5)cnn34)nc2c1F [Example 171, 8-cyclopropyl-N-[(4,5-difluoro-1H-benzimidazol-2-yl)methyl]-2-[(4aS,7aS)-octahydro-6H-pyrrolo[3,4-b]pyridin-6-yl]pyrazolo[1,5-a][1,3,5]triazin-4-amine]",> 20000 nM,2.66 nM,2 nM,3278
"Brc1cnn2c(NCc3nc4ccccc4[nH]3)nc(N3C[C@H]4CCCN[C@H]4C3)nc12 [Example 199, N-[(1H-benzimidazol-2-yl)methyl]-8-bromo-2-[(4aR, 7aR)-octahydro-6H-pyrrolo[3,4-b]pyridin-6-yl]pyrazolo[1,5-a][1,3,5]triazin-4-amine]",5170 nM,15.4 nM,5.55 nM,2661
"COc1cccc2[nH]c(CNc3nc(N4C[C@@H]5CCCN[C@@H]5C4)nc4c(C5CC5)cnn34)nc12 [Example 214, 8-cyclopropyl-N-[(4-methoxy-1H-benzimidazol-2-yl)methyl]-2-[(4aS,7aS)-octahydro-6H-pyrrolo[3,4-b]pyridin-6-yl]pyrazolo[1,5-a][1,3,5]triazin-4-amine]",17700 nM,6.2 nM,3.92 nM,2062

# More lines, now with the values ahead:
IC50 [1],IC50 [2],DC50 [3],(IC50 CDK12 high ATP) to (Degradation DC50 CDK12) ratio [3],SMILES
8560 nM,2.29 nM,2.32 nM,1184,"COc1cccc2[nH]c(CNc3nc(N4CCNCC4)nc4c(C5CC5)cnn34)nc12 [Example 211, 8-cyclopropyl-N-[(4-methoxy-1H-benzimidazol-2-yl)methyl]-2-(piperazin-1-yl)pyrazolo[1,5-a][1,3,5]triazin-4-amine]"
> 20000 nM,1 nM,0.645 nM,1851,"Fc1ccc2[nH]c(CNc3nc(N4CCNCC4)nc4c(C5CC5)cnn34)nc2c1F [Example 174, 8-cyclopropyl-N-[(4,5-difluoro-1H-benzimidazol-2-yl)methyl]-2-(piperazin-1-yl)pyrazolo[1,5-a][1,3,5]triazin-4-amine]"
10800 nM,5.06 nM,2.68 nM,653,"Cc1ccc2[nH]c(CNc3nc(N4CCOCC4)nc4c(C5CC5)cnn34)nc2c1 [Example 193, 8-cyclopropyl-N-[(5-methyl-1H-benzimidazol-2-yl)methyl]-2-(morpholin-4-yl)pyrazolo[1,5-a][1,3,5]triazin-4-amine]"
> 20000 nM,2.43 nM,1.1 nM,581,"Fc1ccc2[nH]c(CNc3nc(N4CCOCC4)nc4c(C5CC5)cnn34)nc2c1F [Example 172, 8-cyclopropyl-N-[(4,5-difluoro-1H-benzimidazol-2-yl)methyl]-2-(morpholin-4-yl)pyrazolo[1,5-a][1,3,5]triazin-4-amine]"
> 20000 nM,1.27 nM,1.59 nM,10852,"Fc1ccc2[nH]c(CNc3nc(N4C[C@@H]5CCCN[C@@H]5C4)nc4c(C5CC5)cnn34)nc2c1 [Example 180, 8-cyclopropyl-N-[(5-fluoro-1H-benzimidazol-2-yl)methyl]-2-[(4aS, 7aS)-octahydro-6H-pyrrolo[3,4-b]pyridin-6-yl]pyrazolo[1,5-a][1,3,5]triazin-4-amine]"
> 20000 nM,6.68 nM,0.553 nM,11161,"Fc1ccc2[nH]c(CNc3nc(N4CCNCC4)nc4c(C5CC5)cnn34)nc2c1 [Example 190, 8-cyclopropyl-N-[(5-fluoro-1H-benzimidazol-2-yl)methyl]-2-(piperazin-1-yl)pyrazolo[1,5-a][1,3,5]triazin-4-amine]"
